One data set deals with Candida albicans. Description: Antimicrobial (antifungal) screening by agar dilution, Candida albicans. The data set is classed as cell-based. Conditions: after 10, 20, 40 and 60 minutes at all dilutions 1:100, 1:200, 1:400, 1:800. As for the experimental part: (§1) The antibacterial properties of the synthesized compound ethyl 2-[9-(2-hydroxyquinolin-3-yl)-1,8-dioxo-3,4,9,10-tetrahydroacridine-10-yl]-acetate were studied by the method of agar dilution. Test solutions of each compound was prepared in concentration of 1% using dimethylformamide as a solvent then they are diluted in physiological solution to obtain the final experimental dilutions 1:100, 1:200, 1:400, 1:800. The effect of these substances are compared with furacillin in a controllable study. The testing microbes used were gram positive bacteria Staphylococcus aureus, gram negative bacteria Pseudomonas aeruginosa and Escherichia coli and Candida albicans fungus. The experiments used for this survey were meat-pentonlu agar (EPA) for cultivation of bacteria and Saburo environment for the fungus. Each experiment used 1 mL of test solution on each plate […]. Two drops of emulsified with microbes feel were added. All experimental samples were taken from the agar after 10, 20, 40, 60 minutes in the environment on the basis of Patrk planted. The bacteria were cultivated at a temperature of 37° C. for 1 day and the mushroom was kept in a thermostat for […] at a temperature of 28° C. Then results were checked.

The next data set relates to Escherichia coli. As to the kind of experiment: Antimicrobial screening by agar dilution, Escherichia coli. It is filed as cell-based. The settings on record: after 10, 20, 40 and 60 minutes at all dilutions 1:100, 1:200, 1:400, 1:800. As for the experimental part: as §1
(Agar dilution tests growth on a series of plates holding different concentrations.)

Another data set deals with Staphylococcus aureus. Description: Antimicrobial screening by agar dilution, Staphylococcus aureus. The data set is classed as cell-based. The settings on record: after 10, 20, 40 and 60 minutes at all dilutions 1:100, 1:200, 1:400, 1:800. As for the experimental part:
as §1

The next data set has as its system Pseudomonas aeruginosa. As to the kind of experiment: Antimicrobial screening by agar dilution, Pseudomonas aeruginosa. The data set is classed as cell-based. The settings on record: after 10, 20, 40 and 60 minutes at all dilutions 1:100, 1:200, 1:400, 1:800. How it is done:
as §1

As to `CCOC(=O)CN1C2=C(C(=O)CCC2)C(c2cc3ccccc3nc2O)C2=C1CCCC2=O` [ethyl 2-[9-(2-hydroxyquinolin-3-yl)-1,8-dioxo-3,4,9,10-tetrahydroacridine-10-yl]-acetate], the melting point (usually the temperature, or range, at which the solid turns liquid) amounted to 228 °C. Moreover, the inhibition activity entry with Candida albicans is “highest inhibition activity”. In addition, the inhibition activity result in the data set with Escherichia coli is “highest inhibition activity”. Further, the inhibition activity result with Staphylococcus aureus is listed as “highest inhibition activity”. Further, the inhibition activity entry in the data set with Pseudomonas aeruginosa is listed as “highest inhibition activity”.

(Values after patent US11970454B1, “Ethyl-2[9-2(2-hydroxyquinolin-3-yl)-1,8-dioxo-3,4,9,10-tetrahydroacridine-10-yl]-acetate as an antimicrobial compound” (KING FAISAL UNIVERSITY, priority 2023, dated 2024).)
